Test results taken from US10829499B2, “Tetracyclic heterocycle compounds useful as HIV integrase inhibitors” (MERCK SHARP & DOHME CORP., priority 2016, dated 2020).
Like-named read-outs stand apart in the source and are kept apart here.

Tested on: HIV-1 (NL4-3 strain)
Assay: Assay for Inhibition of HIV Replication (kinetic assay, MT4-gag-GFP reporter cell line; VIKING)
Type: cell-based
Description: This assay is a kinetic assay that employs a reporter cell line (MT4-gag-GFP) to quantify the number of new cells infected in each round of replication.
MT4-GFP cells (250,000 cells/ml) were bulk-infected with HIV-1 (NL4-3 strain) at low multiplicity of infection (MOI) in RPMI cell culture medium+10% FBS for 24 hours. Cells were then washed once in RPMI cell culture medium+10% FBS and resuspended in RPMI cell culture medium+0% or 10% or 100% normal human serum (NHS). Test compounds were serial-diluted in DMSO on an ECHO® liquid handler. The infected MT4-GFP cells were added to a 384-well poly-D-lysine coated black plate with clear bottom in which the diluted test compounds were placed. The cells were seeded at 8,000 cells per well and the final DMSO concentration was 0.4%. The infected cells (Green GFP cells) were quantified at both 24 and 48 hours post incubation using Acumen eX3. Viral reproductive ratio (R0) was determined using the number of infected cells at 48 hours divided by the number of infected cells at 24 hours. Percent viral growth inhibition was calculated by [1-(R-Rtripledrug),/(RDMSO-Rtripledrug)]*100. Compound potency IP or IC50 was determined by a 4-parameter dose response curve analysis. In vitro potency in the cell-based assay in the absence of normal human serum (NHS) and the presence of 100% NHS.

[1] = Human immunodeficiency virus 1, NL43, MT4-GFP cells infected with HIV-1 NL4-3, 0% normal human serum (NHS), read-out: VIKING IP50 (nM) with 0% NHS
[2] = Human immunodeficiency virus 1, NL43, MT4-GFP cells infected with HIV-1 NL4-3, 100% normal human serum (NHS), read-out: VIKING IP50 (nM) with 100% NHS
[3] = MT4-GFP cells infected with HIV-1 NL4-3, 0% normal human serum (NHS), read-out: VIKING IP50 (nM) with 0% NHS
[4] = MT4-GFP cells infected with HIV-1 NL4-3, 100% normal human serum (NHS), read-out: VIKING IP50 (nM) with 100% NHS

Structure (SMILES) | IC50 [1] [nM] | IC50 [2] [nM] | IC50 [3] [nM] | IC50 [4] [nM]
C[C@H]1CN2C(=O)c3c(O)c(=O)c(C(=O)NCc4cccc(Cl)c4F)c4n3C(CC4)C2N1C (stereo partly shown) [Compound 102] | 1.05 | 579 | – | –
C[C@H]1CN2C(=O)c3c(O)c(=O)c(C(=O)NCc4cccc(Cl)c4F)c4n3C(CC4)C2N1C (stereo partly shown) [Compound 103] | – | – | 1.45 | 15.4
C[C@H]1CN2C(=O)c3c(O)c(=O)c(C(=O)NCc4cccc(Cl)c4F)c4n3C(CC4)C2N1C (stereo partly shown) [Compound 104] | – | – | 0.397 | 71.4
C[C@H]1CN2C(=O)c3c(O)c(=O)c(C(=O)NCc4cccc(Cl)c4F)c4n3C(CC4)C2N1C (stereo partly shown) [Compound 105] | – | – | 0.495 | 32.6
CC(C)N1C2C3CCc4c(C(=O)NCc5cccc(Cl)c5F)c(=O)c(O)c(n43)C(=O)N2C[C@@H]1C (stereo partly shown) [Compound 106] | 3.68 | 88.9 | – | –
CCCN1C2C3CCc4c(C(=O)NCc5cccc(Cl)c5F)c(=O)c(O)c(n43)C(=O)N2C[C@@H]1C (stereo partly shown) [Compound 107] | – | – | 2.82 | 272
CCCN1C2C3CCc4c(C(=O)NCc5cccc(Cl)c5F)c(=O)c(O)c(n43)C(=O)N2C[C@@H]1C (stereo partly shown) [Compound 108] | – | – | 1.17 | 80.1
C[C@H]1CN(C)C2C3CCc4c(C(=O)NCc5cccc(Cl)c5F)c(=O)c(O)c(n43)C(=O)N21 (stereo partly shown) [Compound 109] | 1.17 | – | – | 480
C[C@H]1CN(C)C2C3CCc4c(C(=O)NCc5cccc(Cl)c5F)c(=O)c(O)c(n43)C(=O)N21 (stereo partly shown) [Compound 110] | – | – | 0.733 | 67.8
CCN1C[C@H](C)N2C(=O)c3c(O)c(=O)c(C(=O)NCc4cccc(Cl)c4F)c4n3C(CC4)C12 (stereo partly shown) [Compound 111] | 1.19 | – | – | 260
CCN1C[C@H](C)N2C(=O)c3c(O)c(=O)c(C(=O)NCc4cccc(Cl)c4F)c4n3C(CC4)C12 (stereo partly shown) [Compound 112] | – | – | 0.806 | 40.4
CCCN1C[C@H](C)N2C(=O)c3c(O)c(=O)c(C(=O)NCc4cccc(Cl)c4F)c4n3C(CC4)C12 (stereo partly shown) [Compound 113] | 3.58 | 291 | – | –
CCCN1C[C@H](C)N2C(=O)c3c(O)c(=O)c(C(=O)NCc4cccc(Cl)c4F)c4n3C(CC4)C12 (stereo partly shown) [Compound 114] | – | – | 6.36 | 175
CC(C)N1C[C@H](C)N2C(=O)c3c(O)c(=O)c(C(=O)NCc4cccc(Cl)c4F)c4n3C(CC4)C12 (stereo partly shown) [Compound 115] | 7.4 | 113 | – | –
C[C@H]1CN(S(C)(=O)=O)C2C3CCc4c(C(=O)NCc5cccc(Cl)c5F)c(=O)c(O)c(n43)C(=O)N21 (stereo partly shown) [Compound 117] | 3.78 | 130 | – | –
C[C@H]1CN2C(=O)c3c(O)c(=O)c(C(=O)NCc4cccc(Cl)c4F)c4n3C(CC4)C2N1S(C)(=O)=O (stereo partly shown) [Compound 118] | 8.73 | – | – | 1280
C[C@H]1CN2C(=O)c3c(O)c(=O)c(C(=O)NCc4cccc(Cl)c4F)c4n3C(CC4)C2N1S(C)(=O)=O (stereo partly shown) [Compound 119] | – | – | 8.77 | 445
CC(=O)N1C[C@H](C)N2C(=O)c3c(O)c(=O)c(C(=O)NCc4cccc(Cl)c4F)c4n3C(CC4)C12 (stereo partly shown) [Compound 120] | – | – | 1.19 | 24.5
CC(=O)N1C[C@H](C)N2C(=O)c3c(O)c(=O)c(C(=O)NCc4cccc(Cl)c4F)c4n3C(CC4)C12 (stereo partly shown) [Compound 121] | 1.45 | 308 | – | –
CC(=O)N1C2C3CCc4c(C(=O)NCc5cccc(Cl)c5F)c(=O)c(O)c(n43)C(=O)N2C[C@@H]1C (stereo partly shown) [Compound 122] | 2.17 | 30.1 | – | –
CC(=O)N1C2C3CCc4c(C(=O)NCc5cccc(Cl)c5F)c(=O)c(O)c(n43)C(=O)N2C[C@@H]1C (stereo partly shown) [Compound 123] | – | – | 2.56 | 58.6
COC1CC2C3N(C)CCN3C(=O)c3c(O)c(=O)c(C(=O)NCc4ccc(F)cc4F)c1n32 (stereo not shown) [Compound 124] | – | – | 7.41 | 28
COC1CC2C3N(C)CCN3C(=O)c3c(O)c(=O)c(C(=O)NCc4ccc(F)cc4F)c1n32 (stereo not shown) [Compound 125] | – | – | 10.3 | 57.7
COC1CC2C3N(C)CCN3C(=O)c3c(O)c(=O)c(C(=O)NCc4ccc(F)cc4F)c1n32 (stereo not shown) [Compound 126] | – | – | 2.42 | 211
COC1CC2C3N(C)CCN3C(=O)c3c(O)c(=O)c(C(=O)NCc4ccc(F)cc4F)c1n32 (stereo not shown) [Compound 127] | – | – | 1.2 | 11.7
C[C@H]1CNC2C3CCc4c(-c5nnc(Cc6ccc(F)cc6F)s5)c(=O)c(O)c(n43)C(=O)N21 (stereo partly shown) [Compound 128] | – | 361 | 6.69 | –
C[C@H]1CNC2C3CCc4c(-c5nnc(Cc6ccc(F)cc6F)s5)c(=O)c(O)c(n43)C(=O)N21 (stereo partly shown) [Compound 129] | – | – | 15.3 | 283

Structure (SMILES) | IC50 [1] [nM] | IC50 [2] [nM] | IC50 [3] [nM] | IC50 [4] [nM]
C[C@H]1CN2C(=O)c3c(O)c(=O)c(-c4nnc(Cc5ccc(F)cc5F)s4)c4n3C(CC4)C2N1 (stereo partly shown) [Compound 130] | 3.53 | – | – | 92.8
C[C@H]1CN2C(=O)c3c(O)c(=O)c(-c4nnc(Cc5ccc(F)cc5F)s4)c4n3C(CC4)C2N1 (stereo partly shown) [Compound 131] | – | – | 2.33 | 36.1
CC12OCCCN1C(=O)c1c(O)c(=O)c(C(=O)NCc3ccc(F)cc3F)c3n1C2CC3 (stereo not shown) [Compound 133] | 0.93 | – | – | 617
CC12OCCCN1C(=O)c1c(O)c(=O)c(C(=O)NCc3ccc(F)cc3F)c3n1C2CC3 (stereo not shown) [Compound 134] | – | – | 1.29 | 20.5
CC12OCCCN1C(=O)c1c(O)c(=O)c(C(=O)NCc3ccc(F)cc3F)c3n1C2CC3 (stereo not shown) [Compound 135] | – | – | 0.791 | 1280
CC12NCCN1C(=O)c1c(O)c(=O)c(C(=O)NCc3ccc(F)cc3F)c3n1C2CC3 (stereo not shown) [Compound 138] | – | – | 2.41 | 27
CN1CCN2C(=O)c3c(O)c(=O)c(C(=O)NCc4ccc(F)cc4F)c4n3C(CC4)C12C (stereo not shown) [Compound 140] | – | – | 0.557 | 11.3
CN1CCCN2C(=O)c3c(O)c(=O)c(C(=O)NCc4ccc(F)cc4F)c4n3C(CC4)C12C (stereo not shown) [Compound 142] | – | – | 0.504 | 9.41
O=C(NCc1cccc(Cl)c1F)c1c2n3c(c(O)c1=O)C(=O)N1C4CCC(C4)OC1C3CC2 (stereo not shown) [Compound 152] | 5.52 | – | – | 2100
O=C(NCc1cccc(Cl)c1F)c1c2n3c(c(O)c1=O)C(=O)N1C4CCC(C4)OC1C3CC2 (stereo not shown) [Compound 153] | – | – | 4.53 | 95.5
O=C(NCc1cccc(Cl)c1F)c1c2n3c(c(O)c1=O)C(=O)N1C4CCC(C4)OC1C3CC2 (stereo not shown) [Compound 154] | – | – | 4.14 | 79.2
O=C(NCc1cccc(Cl)c1F)c1c2n3c(c(O)c1=O)C(=O)N1C4CCC(C4)OC1C3CC2 (stereo not shown) [Compound 155] | – | – | 2.77 | 7460
O=C(NCc1ccc(F)c(Cl)c1F)c1c2n3c(c(O)c1=O)C(=O)N1C4CCC(C4)OC1C3CC2 (stereo not shown) [Compound 156] | – | – | 11.8 | 5270
O=C(NCc1ccc(F)c(Cl)c1F)c1c2n3c(c(O)c1=O)C(=O)N1C4CCC(C4)OC1C3CC2 (stereo not shown) [Compound 157] | – | – | 12.9 | 733
O=C(NCc1ccc(F)c(Cl)c1F)c1c2n3c(c(O)c1=O)C(=O)N1C4CCC(C4)OC1C3CC2 (stereo not shown) [Compound 158] | – | – | 4 | 16100
O=C(NCc1ccc(F)c(Cl)c1F)c1c2n3c(c(O)c1=O)C(=O)N1C4CCC(C4)OC1C3CC2 (stereo not shown) [Compound 159] | – | – | 5.85 | 89.3
O=C(NCc1ccc(F)cc1)c1c2n3c(c(O)c1=O)C(=O)N1C4CCC(C4)OC1C3CC2 (stereo not shown) [Compound 160] | 4.14 | – | – | 73.1
O=C(NCc1ccc(F)cc1)c1c2n3c(c(O)c1=O)C(=O)N1C4CCC(C4)OC1C3CC2 (stereo not shown) [Compound 161] | – | – | 2.67 | 5510
O=C(NCc1ccc(F)cc1)c1c2n3c(c(O)c1=O)C(=O)N1C4CCC(C4)OC1C3CC2 (stereo not shown) [Compound 162] | – | – | 3.9 | 50.4
O=C(NCc1ccc(F)cc1)c1c2n3c(c(O)c1=O)C(=O)N1C4CCC(C4)OC1C3CC2 (stereo not shown) [Compound 163] | – | – | 4.32 | 1660
O=C(NCc1cccc(F)c1F)c1c2n3c(c(O)c1=O)C(=O)N1C4CCC(C4)OC1C3CC2 (stereo not shown) [Compound 164] | 4.89 | – | – | 1390
O=C(NCc1cccc(F)c1F)c1c2n3c(c(O)c1=O)C(=O)N1C4CCC(C4)OC1C3CC2 (stereo not shown) [Compound 165] | – | – | 6.42 | 56.1
O=C(NCc1cccc(F)c1F)c1c2n3c(c(O)c1=O)C(=O)N1C4CCC(C4)OC1C3CC2 (stereo not shown) [Compound 166] | – | – | 5.39 | 50.6
O=C(NCc1cccc(F)c1F)c1c2n3c(c(O)c1=O)C(=O)N1C4CCC(C4)OC1C3CC2 (stereo not shown) [Compound 167] | – | – | 3.78 | 3390
O=C(NCc1c(F)cc(F)cc1F)c1c2n3c(c(O)c1=O)C(=O)N1C4CCC(C4)OC1C3CC2 (stereo not shown) [Compound 168] | 3.72 | – | – | 1620
O=C(NCc1c(F)cc(F)cc1F)c1c2n3c(c(O)c1=O)C(=O)N1C4CCC(C4)OC1C3CC2 (stereo not shown) [Compound 169] | – | – | 2.71 | 42.9
